As usually defined, the IC50 is the point on the concentration scale where inhibition reaches its midpoint.

A value given as a limit tells only on which side of the number the result lay.

Consider one compound from ChEMBL document CHEMBL5046316, “Structure-Based Optimization of a Fragment-like TLR8 Binding Screening Hit to an In Vivo Efficacious TLR7/8 Antagonist” (ACS Med Chem Lett, 2022).

A short description of data set [1]: Dose normalized AUC in Balb/c mouse at 10 mg/kg, po and 1 mg/kg,iv administered as cassette dose measured upto 24 hrs by LC/MS/MS analysis. It is filed as ADME, organism-based. Details: dose 10 mg/kg, time <=24; call rule not given here. Conditions: in vivo.
Data set [2] in a line: Drug exposure in 129Sv mouse blood at 0.3 mg/kg, po by LC-MS/MS analysis. It is filed as ADME, organism-based. Conditions: in vivo, read-out: Drug uptake.
A short description of data set [3]: Drug exposure in 129Sv mouse blood at 3 mg/kg, po by LC-MS/MS analysis. It is filed as ADME, organism-based. Conditions: in vivo, read-out: Drug uptake.
The nature of data set [4]: Drug exposure in 129Sv mouse blood at 1 mg/kg, po by LC-MS/MS analysis. It is filed as ADME, organism-based. Conditions: in vivo, read-out: Drug uptake.
Data set [5] has as its target T1, Toll-like receptor 4 (Homo sapiens, UniProt O00206). Put plainly: Antagonist activity at human TLR4 expressed in human PBMC cells assessed as inhibition of LPS stimulated TNF level preincubated for 30 mins followed by stimulation and measured after 20 hrs by multiplate reader assay. It is filed as cell-based.
The target of data set [6] is T2, Toll-like receptor 9 (Homo sapiens, UniProt Q9NR96).
T2 sequence (Q9NR96 whole entry): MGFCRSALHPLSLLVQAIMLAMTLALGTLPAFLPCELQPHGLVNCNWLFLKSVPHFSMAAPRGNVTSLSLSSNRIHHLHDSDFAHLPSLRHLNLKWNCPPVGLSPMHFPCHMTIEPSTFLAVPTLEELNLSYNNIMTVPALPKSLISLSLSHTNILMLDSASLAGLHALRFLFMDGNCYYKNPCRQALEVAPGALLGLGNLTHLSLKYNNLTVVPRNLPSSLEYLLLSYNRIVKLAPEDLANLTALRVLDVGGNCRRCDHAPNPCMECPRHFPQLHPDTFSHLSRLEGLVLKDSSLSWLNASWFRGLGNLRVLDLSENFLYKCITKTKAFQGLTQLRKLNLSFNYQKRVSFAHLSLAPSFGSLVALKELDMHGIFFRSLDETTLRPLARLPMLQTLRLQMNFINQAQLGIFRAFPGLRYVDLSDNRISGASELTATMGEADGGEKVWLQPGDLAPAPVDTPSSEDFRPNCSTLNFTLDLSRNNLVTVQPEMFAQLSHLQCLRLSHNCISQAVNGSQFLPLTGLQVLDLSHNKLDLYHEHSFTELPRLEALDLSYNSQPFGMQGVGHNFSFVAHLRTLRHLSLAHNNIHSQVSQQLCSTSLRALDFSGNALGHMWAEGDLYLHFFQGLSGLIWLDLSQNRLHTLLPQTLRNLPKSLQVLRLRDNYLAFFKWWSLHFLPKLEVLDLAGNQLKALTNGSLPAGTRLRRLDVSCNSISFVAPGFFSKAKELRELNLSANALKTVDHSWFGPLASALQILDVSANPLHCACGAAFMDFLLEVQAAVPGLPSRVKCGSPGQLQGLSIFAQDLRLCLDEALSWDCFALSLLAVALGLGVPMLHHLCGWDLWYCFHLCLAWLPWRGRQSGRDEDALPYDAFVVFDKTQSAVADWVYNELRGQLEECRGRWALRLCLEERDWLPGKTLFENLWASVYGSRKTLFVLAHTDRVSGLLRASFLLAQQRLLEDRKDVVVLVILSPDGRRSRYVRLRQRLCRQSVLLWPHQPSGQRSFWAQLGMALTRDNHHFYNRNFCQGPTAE
Description: Antagonist activity at human TLR9 expressed in human PBMC cells assessed as inhibition of ODN2216 stimulated IFNalpha level preincubated for 30 mins followed by stimulation and measured after 20 hrs by AlphaLISA method. It is filed as cell-based. (In general: Alpha assays give light when donor and acceptor beads are brought close together.)

For data set [7], the target named is T3, Toll-like receptor 7 (Mus musculus, UniProt P58681).
T3 sequence (P58681 whole entry): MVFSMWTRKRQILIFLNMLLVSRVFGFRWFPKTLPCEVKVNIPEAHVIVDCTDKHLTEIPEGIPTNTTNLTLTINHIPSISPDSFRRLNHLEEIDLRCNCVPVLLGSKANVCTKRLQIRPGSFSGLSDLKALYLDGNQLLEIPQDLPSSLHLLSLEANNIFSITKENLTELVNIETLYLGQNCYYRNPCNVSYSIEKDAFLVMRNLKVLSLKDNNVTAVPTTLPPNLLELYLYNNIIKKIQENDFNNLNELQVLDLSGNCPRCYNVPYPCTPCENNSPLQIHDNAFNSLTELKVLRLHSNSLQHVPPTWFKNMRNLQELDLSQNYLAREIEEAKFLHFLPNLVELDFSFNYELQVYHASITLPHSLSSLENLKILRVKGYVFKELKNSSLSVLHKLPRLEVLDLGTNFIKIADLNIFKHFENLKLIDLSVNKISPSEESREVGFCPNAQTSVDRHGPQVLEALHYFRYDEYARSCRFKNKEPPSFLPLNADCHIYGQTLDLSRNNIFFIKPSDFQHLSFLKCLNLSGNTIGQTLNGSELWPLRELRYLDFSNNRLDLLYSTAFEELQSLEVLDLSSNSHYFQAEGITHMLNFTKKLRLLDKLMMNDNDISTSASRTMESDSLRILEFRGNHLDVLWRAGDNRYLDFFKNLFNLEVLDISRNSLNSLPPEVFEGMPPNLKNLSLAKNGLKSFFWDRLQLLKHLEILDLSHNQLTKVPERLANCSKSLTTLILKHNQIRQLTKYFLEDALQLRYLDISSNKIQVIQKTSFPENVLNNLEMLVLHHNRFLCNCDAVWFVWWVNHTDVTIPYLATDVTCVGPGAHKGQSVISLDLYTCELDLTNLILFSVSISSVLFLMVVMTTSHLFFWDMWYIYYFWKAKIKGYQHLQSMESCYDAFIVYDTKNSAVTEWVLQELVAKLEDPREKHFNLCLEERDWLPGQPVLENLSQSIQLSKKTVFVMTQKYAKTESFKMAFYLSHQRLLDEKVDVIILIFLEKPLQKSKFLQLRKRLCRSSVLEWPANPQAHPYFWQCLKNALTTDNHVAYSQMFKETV
Description: Antagonist activity at mouse TLR7 expressed in human PBMC cells assessed as inhibition of ssRNA stimulated IFNalpha level preincubated for 30 mins followed by stimulation and measured after 20 hrs by AlphaLISA method. It is filed as cell-based.

Data set [8] addresses T2, Toll-like receptor 9. Put plainly: Antagonist activity at human TLR9 expressed in human whole blood assessed as inhibition of ODN2216 stimulated IFNalpha level preincubated for 30 mins followed by stimulation and measured after 20 hrs by AlphaLISA method. It is filed as tissue-based.
Data set [9] has as its target T1, Toll-like receptor 4. Description: Antagonist activity at human TLR4 expressed in human whole blood assessed as inhibition of LPS stimulated TNF level preincubated for 30 mins followed by stimulation and measured after 20 hrs by multiplate reader assay. It is filed as tissue-based.

T1 sequence (O00206 whole entry): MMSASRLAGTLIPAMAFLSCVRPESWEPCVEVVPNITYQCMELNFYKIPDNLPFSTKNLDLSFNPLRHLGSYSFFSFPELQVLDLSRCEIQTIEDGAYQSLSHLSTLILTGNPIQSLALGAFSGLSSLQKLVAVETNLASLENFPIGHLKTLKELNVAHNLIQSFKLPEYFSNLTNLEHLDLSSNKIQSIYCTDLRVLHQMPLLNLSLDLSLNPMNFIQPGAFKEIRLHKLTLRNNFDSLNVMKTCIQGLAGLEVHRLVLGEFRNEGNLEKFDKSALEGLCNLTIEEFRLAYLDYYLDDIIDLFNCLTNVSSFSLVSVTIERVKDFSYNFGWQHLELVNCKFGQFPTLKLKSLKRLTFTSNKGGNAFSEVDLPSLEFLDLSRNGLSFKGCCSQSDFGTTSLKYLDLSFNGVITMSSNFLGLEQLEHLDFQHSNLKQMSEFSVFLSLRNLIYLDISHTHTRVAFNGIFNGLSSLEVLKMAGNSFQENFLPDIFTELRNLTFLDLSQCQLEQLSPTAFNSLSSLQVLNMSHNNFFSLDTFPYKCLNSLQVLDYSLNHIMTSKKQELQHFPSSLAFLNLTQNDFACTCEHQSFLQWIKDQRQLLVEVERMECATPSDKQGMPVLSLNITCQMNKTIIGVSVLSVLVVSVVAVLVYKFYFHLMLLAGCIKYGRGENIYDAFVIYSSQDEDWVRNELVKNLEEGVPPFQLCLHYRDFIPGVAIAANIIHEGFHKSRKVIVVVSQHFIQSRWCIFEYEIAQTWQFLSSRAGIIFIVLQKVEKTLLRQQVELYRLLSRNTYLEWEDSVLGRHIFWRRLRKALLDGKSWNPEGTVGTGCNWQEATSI

The compound `Cc1cc(-c2cc3[nH]nc(N[C@@H]4CCNC[C@H]4F)c3cc2C2CC2)cc(C)n1` returned an AUC in [1] of 304 nM·h/mg/kg. In addition, the results for the concentration in data set [2], in [3] and in [4] were 1.3 nM, 110 nM and 8 nM, respectively. The IC50 in [5] was over 8 µM; in data set [6], over 570 nM; in data set [7] it was “Not Active”; in [8], 390 nM; in [9], over 10 µM.
